According to patent US9416141B2 (University of Washington through its Center for …, priority 2012, dated 2016):
Where a name gives a salt, the structure may show the parent alone.

Tested on: hair cells
Experiment: Hair cell toxicity assay in zebrafish (neomycin-induced hair cell death, DASPEI staining of neuromasts)
Format: in vivo
Conditions: Danio rerio; for Emax at 2.8 µM: maximum observed @ 2.8 μM test compound; for Emax at 2.8 µM / Emax at 25 µM / Emax at 8.3 µM: 200 micromolar neomycin, read-out: Max HC Protection (HCmax, % hair cell survival); for Emax at 25 µM: maximum observed @ 25 μM test compound; for EC50: zebrafish larvae 5-7 dpf, 1 h pre-treatment, then 200 micromolar neomycin + test compound 30 min, read-out: HC50 (concentration that would produce 50% hair cell survival); for Emax at 8.3 µM: maximum observed @ 8.3 μM test compound
How it was run: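 Zebrafish larvae 5-7 dpf pre-treated 1 h with compound (0.010-25 μM), then 30 min with 200 μM neomycin plus compound. DASPEI stained 10 neuromasts per fish, scored 0-2 (total 0-20), normalised to vehicle controls as % hair cell survival. HC50 linearly interpolated if survival reached ≥50%; HCmax is maximum survival.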

Row | SMILES | Emax at 2.8 µM [%] | Emax at 25 µM [%] | EC50 [nM] | Emax at 8.3 µM [%]
1 | NC(=O)c1c(NC(=O)Nc2ccc3ccccc3c2)sc2c1CCN(CC1CCC1)C2 [Example 35, 6-(Cyclobutylmethyl)-2-[3-(naphthalen-2-yl)ureido]-4,5,6,7-tetrahydrothieno[2,3-c]pyridine-3-carboxamide hydrochloride] | 42 |  |  | 
2 | CCN1CCc2c(sc(NC(=O)Nc3ccc(Oc4ccccc4)cc3)c2C(N)=O)C1 [Example 225, 6-ethyl-2-{[(4-phenoxyphenyl)carbamoyl]amino}-4H,5H,6H,7H-thieno[2,3-c]pyridine-3-carboxamide] |  | 91 | 1000 to 10000 | 
3 | CCN1CCc2c(sc(NC(=O)Nc3ccc(Cl)c(C)c3)c2C(N)=O)C1 [Example 64, 2-[3-(4-chloro-3-methylphenyl)ureido]-6-ethyl-4,5,6,7-tetrahydrothieno[2,3-c]pyridine-3-carboxamide hydrochloride] |  | 77 | 1000 to 10000 | 
4 | CCN1CCc2c(sc(NC(=O)Nc3cccc(C#N)c3)c2C(N)=O)C1 [Example 73, 2-[3-(3-Cyanophenyl)ureido]-6-ethyl-4,5,6,7-tetrahydrothieno[2,3-c]pyridine-3-carboxamide hydrochloride] |  | 51 | > 10000 | 
5 | CC(C)(C)OC(=O)C1CC(N2CCc3c(sc(NC(=O)Nc4ccc(Cl)cc4)c3C(N)=O)C2)C1 (centres unmarked) [Example 22, tert-Butyl 3-{3-carbamoyl-2-[3-(4-chlorophenyl)ureido]-4,5-dihydrothieno[2,3-c]pyridin-6(7H)-yl}cyclobutanecarboxylate] | 22 |  |  | 
6 | Cc1c(CN2CCOCC2)sc(NC(=O)Nc2ccc(Cl)cc2)c1C(N)=O [Example 86, 2-[3-(4-Chlorophenyl)ureido]-4-methyl-5-(morpholinomethyl)thiophene-3-carboxamide hydrochloride] |  |  | 1000 to 10000 | 51
7 | CN1C2CCC1c1sc(NC(=O)Nc3ccc(C(=O)c4ccccc4)cc3)c(C(N)=O)c1C2 (racemic) [Example 126, (+/−)-2-[3-(4-Benzoylphenyl)ureido]-9-methyl-5,6,7,8-tetrahydro-4H-5,8-epiminocyclohepta[b]thiophene-3-carboxamide hydrochloride] | 41 |  |  | 
8 | CN1C(C)(C)Cc2c(sc(NC(=O)Nc3ccc(Cl)cc3)c2C(N)=O)C1(C)C [Example 120, 2-[3-(4-chlorophenyl)ureido]-5,5,6,7,7-pentamethyl-4,5,6,7-tetrahydrothieno[2,3-c]pyridine-3-carboxamide hydrochloride] | 81 |  | 1000 to 10000 | 
9 | CCN1CCc2sc(NC(=O)Nc3ccc(Cl)cc3)c(C(N)=O)c2C1 [Example 116, 2-[3-(4-Chlorophenyl)ureido]-5-ethyl-4,5,6,7-tetrahydrothieno[3,2-c]pyridine-3-carboxamide hydrochloride] |  | 82 | 1000 to 10000 | 
10 | CC12CCC(C)(N1)c1sc(NC(=O)Nc3ccc(Cl)cc3)c(C(N)=O)c1C2 (racemic) [Example 123, (+/−)-2-[3-(4-Chlorophenyl)ureido]-5,8-dimethyl-5,6,7,8-tetrahydro-4H-5,8-epiminocyclohepta[b]thiophene-3-carboxamide trifluoroacetate] | 60 |  | < 1000 | 
11 | CC1(CN2CCc3c(sc(NC(=O)Nc4ccc(Cl)cc4)c3C(N)=O)C2)CC1 [Example 63, 2-[3-(4-Chlorophenyl)ureido]-6-[(1-methylcyclopropyl)methyl]-4,5,6,7-tetrahydrothieno[2,3-c]pyridine-3-carboxamide hydrochloride] | 54 |  | 1000 to 10000 | 
12 | CCN1CCCc2c(sc(NC(=O)Nc3ccc(Cl)cc3)c2C(N)=O)C1 [Example 114, 2-[3-(4-chlorophenyl)ureido)-7-ethyl-5,6,7,8-tetrahydro-4H-thieno[2,3-c]azepine-3-carboxamide hydrochloride] |  | 97 | 1000 to 10000 | 
13 | NC(=O)c1c(NC(=O)Nc2ccc(Cl)cc2)sc2c1CC1CCC2N1CC1CCCCC1 (racemic) [Example 131, (+/−)-2-[3-(4-chlorophenyl)ureido]-9-(cyclohexylmethyl)-5,6,7,8-tetrahydro-4H-5,8-epiminocyclohepta[b]thiophene-3-carboxamide hydrochloride] | 88 |  | < 1000 | 
14 | CCN1CCc2c(sc(Nc3c(Nc4ccc(Cl)cc4)c(=O)c3=O)c2C(N)=O)C1 [Example 109, 2-({2-[(4-chlorophenyl)amino]-3,4-dioxocyclobut-1-en-1-yl}amino)-6-ethyl-4,5,6,7-tetrahydrothieno[2,3-c]pyridine-3-carboxamide hydrochloride] |  | 22 |  | 
15 | CCN1CCc2c(sc(NC(=O)Nc3ccc(Cl)cc3)c2-c2nnco2)C1 [Example 104, 1-(4-chlorophenyl)-3-[6-ethyl-3-(1,3,4-oxadiazol-2-yl)-4,5,6,7-tetrahydrothieno[2,3-c]pyridin-2-yl]urea hydrochloride] |  | 0 |  | 
16 | NC(=O)CCN1CCc2c(sc(NC(=O)Nc3ccc(Cl)cc3)c2C(N)=O)C1 [Example 50, 6-(3-amino-3-oxopropyl)-2-[3-(4-chlorophenyl)ureido]-4,5,6,7-tetrahydrothieno[2,3-c]pyridine-3-carboxamide hydrochloride] |  | 82 | 1000 to 10000 | 
17 | CC(C1CCC1)[N+]1(C)CCc2c(sc(NC(=O)Nc3ccc(Cl)cc3)c2C(N)=O)C1 (racemic) [Example 203, (+/−)-3-Carbamoyl-2-[3-(4-chlorophenyl)ureido]-6-(1-cyclobutylethyl)-6-methyl-4,5,6,7-tetrahydrothieno[2,3-c]pyridin-6-ium chloride] | 75 |  | < 1000 | 
18 | C[N+]1(CCCC(=O)O)CCc2c(sc(NC(=O)Nc3ccc(Cl)cc3)c2C(N)=O)C1 (centres unmarked) [Example 149, 3-Carbamoyl-6-(3-carboxypropyl)-2-[3-(4-chlorophenyl)ureido]-6-methyl-4,5,6,7-tetrahydrothieno[2,3-c]pyridin-6-ium trifluoroacetate] |  | 24 |  | 
19 | C[N+]1(C)C2CCC1c1sc(NC(=O)Nc3ccc(Cl)cc3)c(C(N)=O)c1C2 (racemic) [Example 188, (+/−)-3-Carbamoyl-2-[3-(4-chlorophenyl)ureido]-9,9-dimethyl-5,6,7,8-tetrahydro-4H-thienocyclohepten-5,8-iminium iodide] |  | 59 | 1000 to 10000 | 
20 | NC(=O)c1c(NC(=O)Nc2ccc(Cl)cc2)sc2c1CCN(C1CCNC1)C2 (racemic) [Example 7, (+/−)-2-[3-(4-Chlorophenyl)ureido]-6-(pyrrolidin-3-yl)-4,5,6,7-tetrahydrothieno[2,3-c]pyridine-3-carboxamide dihydrochloride] |  | 78 | 1000 to 10000 | 
21 | CN1CCN(CCN2CCc3c(sc(NC(=O)Nc4ccc(Cl)cc4)c3C(N)=O)C2)CC1 [Example 45, 2-[3-(4-Chlorophenyl)ureido]-6-[2-(4-methylpiperazin-1-yl)ethyl]-4,5,6,7-tetrahydrothieno[2,3-c]pyridine-3-carboxamide hydrochloride] |  | 78 | 1000 to 10000 | 
22 | CC(C)(C)c1ccc(CCC(=O)NCCCN2CCc3c(sc(NC(=O)Nc4ccc(Cl)cc4)c3C(N)=O)C2)cc1 [Example 213, 6-{3-[3-(4-tert-butylphenyl)propanamido]propyl}-2-{[(4-chlorophenyl)carbamoyl]amino}-4H,5H,6H,7H-thieno[2,3-c]pyridine-3-carboxamide] | 92 |  | < 1000 | 
23 | CC1(C)Cc2c(sc(NC(=O)Nc3ccc(Cl)cc3)c2C(N)=O)C(C)(C)N1 [Example 90, 2-[3-(4-Chlorophenyl)ureido]-5,5,7,7-tetramethyl-4,5,6,7-tetrahydrothieno[2,3-c]pyridine-3-carboxamide hydrochloride] |  |  | 1000 to 10000 | 99
24 | CCN1CCc2c(sc(NC(=O)Nc3ccc(Br)cc3)c2C(N)=O)C1 [Example 222, 2-{[(4-bromophenyl)carbamoyl]amino}-6-ethyl-4H,5H,6H,7H-thieno[2,3-c]pyridine-3-carboxamide] |  | 90 | 1000 to 10000 | 
25 | C[N+]1(CC2CC2)CCc2c(sc(NC(=O)Nc3ccc(Cl)cc3)c2C(N)=O)C1 (centres unmarked) [Example 140, 3-Carbamoyl-2-[3-(4-chlorophenyl)ureido]-6-(cyclopropylmethyl)-6-methyl-4,5,6,7-tetrahydrothieno[2,3-c]pyridin-6-ium iodide] |  | 92 | < 1000 | 
26 | CCOC(=O)c1c(Nc2c(Nc3ccc(Cl)cc3)c(=O)c2=O)sc2c1CCN(CC)C2 [Example 110, Ethyl 2-({2-[(4-chlorophenyl)amino]-3,4-dioxocyclobut-1-en-1-yl}amino)-6-ethyl-4,5,6,7-tetrahydrothieno[2,3-c]pyridine-3-carboxylate hydrochloride] |  | 69 | > 10000 | 
27 | CCN1CCc2c(sc(NC(=O)Nc3ccc(Cl)cc3)c2C(=O)NCc2cccnc2)C1 [Example 98, 2-[3-(4-Chlorophenyl)ureido]-6-ethyl-N-(pyridin-3-ylmethyl)-4,5,6,7-tetrahydrothieno[2,3-c]pyridine-3-carboxamide dihydrochloride] |  | 52 | > 10000 | 
28 | COC(=O)C(C)(C)CN1CCc2c(sc(NC(=O)Nc3ccc(Cl)cc3)c2C(N)=O)C1 [Example 38, Methyl 3-{3-carbamoyl-2-[3-(4-chlorophenyl)ureido]-4,5-dihydrothieno[2,3-c]pyridin-6(7H)-yl}-2,2-dimethylpropanoate hydrochloride] | 14 |  |  | 
29 | CN(C)C(=O)CCCN1CCc2c(sc(NC(=O)Nc3ccc(Cl)cc3)c2C(N)=O)C1 [Example 23, 2-[3-(4-Chlorophenyl)ureido]-6-[4-(dimethylamino)-4-oxobutyl]-4,5,6,7-tetrahydrothieno[2,3-c]pyridine-3-carboxamide hydrochloride] | 43 |  |  | 
